Reference: a melting point compilation (Tetko et al.; mined from patent text by program, amines drawn as free bases though some values may be those of a salt)

`O=C1Nc2ccccc2CCC1NC(CCc1ccccc1)C(=O)OCc1ccccc1` (stereo not given) gave a melting point of 139 to 141 °C.
`O=C(Nc1nc(OCc2ccc(F)cc2)ncc1F)c1snc(Cl)c1Cl` showed a melting point of 87 to 90 °C.
With `COc1ccc(C(=NO)c2ccc(OC)cc2)cc1` the melting point was 131 to 132 °C.
`CCc1nc2cc(COC)c(Cl)cc2n1-c1ccc(CCOC(=O)NS(=O)(=O)c2ccc(C)cc2)cc1` showed a melting point of 174 °C.
With `c1cc2c3c(nnc4c3c1OCC4)CCO2` the melting point was 249 °C.
Compound `CCOC(=O)Cc1nn(Cc2ccc(Br)c(Cl)c2)c(=O)c2ccccc12` has a melting point of 142 to 145 °C.
`O=C(NCCCN1CCN(c2cccc(Cl)c2)CC1)NC12CC3CC(CC(C3)C1)C2` showed a melting point of 174 to 175 °C.
`O=C(Nc1cccc(F)c1)c1ccccn1` showed a melting point of 74 to 78 °C.
For `CCCCc1nc(C=O)c(Br)[nH]1`, the melting point was 113 °C.
Compound `O=C(NCCCCN1CCC(c2ccc3c(c2)CCCC3)CC1)c1ccc(NC(=O)c2ccc(Cl)cc2)cc1` has a melting point of 285 °C.
With `Cc1nsc(Br)c1S(N)(=O)=O` the melting point was 148 to 150 °C.
For `O=C(Nc1ccccc1S(=O)(=O)c1ccccc1)N[C@@H](Cc1ccc(NC(=O)c2c(Cl)cccc2Cl)cc1)C(=O)O`, the melting point was 227 °C.
With `Cc1cc(CCC2(C)NC(=O)NC2=O)cc(C(C)(C)C)c1O` (stereo not given) the melting point was 210 to 211 °C.
Work on `CC(=O)c1ccc(Nc2cccc(-c3cnc(N)nc3)c2)c([N+](=O)[O-])c1` yielded a melting point of 233 to 236 °C.
With `O=[N+]([O-])c1cnc2ccc(Sc3ccccc3)cn12` the melting point was 108 to 109 °C.
Compound `CSc1ncc(Cc2ccncc2)c(=O)[nH]1` has a melting point of 179 to 182 °C.
`COC1CCC(OS(=O)(=O)c2ccc(C)cc2)C(COS(=O)(=O)c2ccc(C)cc2)O1` (stereo not given) gave a melting point of 110 to 112 °C.
`CCOC(=O)c1nnc2ccc(NC(=O)c3ccccc3OC(C)=O)cc2c1O` gave a melting point of 240 to 242 °C.
`CCC1(CC)Nc2ccccc2-c2c([N+](=O)[O-])cnn21` showed a melting point of 132 to 134 °C.
For `CCC(OC(=O)CO)c1ccc(Cl)c2nc3n(c12)CCCN3c1ccc(Cl)cc1Cl` (stereo not given), the melting point was 191 to 193 °C.
Compound `COc1cc2cc(C3CCCC3)sc2c(Cl)c1Cl` has a melting point of 59.5 to 60 °C.
Work on `CCCCCCCCCCCCCCCCc1nc(N(C)C)nc(OC)c1Br` yielded a melting point of 66 to 67 °C.
In the case of `Cc1c(C(=O)CCl)csc1C(=O)CCl`, the melting point is reported as 155 to 156 °C.
`Fc1ccc(NC(=S)NN2CC=C(c3ccccc3)CC2)cc1` gave a melting point of 192 to 194 °C.
With `Cc1nn(C)c2ccc(C(=O)O)c(C(=O)O)c12` the melting point was 228 to 232 °C.
`CS(=O)(=O)Nc1cc2oc(C#N)c(NC=O)c(=O)c2cc1Oc1ccccc1` showed a melting point of 229 to 230 °C.
In the case of `CCOC(=O)CCC(=O)c1cccc(C(=O)c2ccc(Cl)cc2)c1N`, the melting point is reported as 112 to 115 °C.
Work on `CCN(CC)CCOc1ccc(Nc2ncc3c(n2)N(c2cccc(CCO)c2)C(=O)N(c2ccccc2Br)C3)cc1` yielded a melting point of 98 °C.
`CCOc1cc2c(-c3ccnc(Cl)c3)c(C(=O)OC)c(C(=O)OC)cc2cc1OC` gave a melting point of 196 to 198 °C.
In the case of `N#Cc1cc(/C=C/C(c2cc(Cl)c(Cl)c(Cl)c2)C(F)(F)F)ccc1-n1cnc(N)n1` (stereo not given), the melting point is reported as 72 to 75 °C.
For `OCC1OC(n2cnc3c(NCC(c4ccccc4)c4cccc(Cl)c4)ncnc32)C(O)C1O` (stereo not given), the melting point was 107 to 110 °C.
`N=C(N)NCCc1ccc(OCCC2Oc3ccccc3N(Cc3cc(Cl)cc(Cl)c3)C2=O)cc1` (stereo not given) gave a melting point of 116 to 117 °C.
For `COc1ccc(C(O)CN2CCN(C(c3ccccc3)c3ccccc3)CC2)cc1OC` (stereo not given), the melting point was 85 °C.
Work on `Cc1c(N2CCNC(C)C2)c(F)cc2c(=O)c(C(=O)O)cn(C3CC3)c12` (stereo not given) yielded a melting point of 206 to 208 °C.
`C=CCc1c(O)ccc2c(=O)cc(C(=O)OCC)oc12` showed a melting point of 164 to 165 °C.
Work on `CC(C)C(=O)c1ccc(N2CCOCC2)cc1` yielded a melting point of 75 to 77 °C.
Work on `Cc1nc2c(-c3ccc(-c4ccccc4)cc3)nc3ccc(F)cc3c2c(=O)o1` yielded a melting point of 188 to 189 °C.
With `COC(=O)CC1C(OC(C)=O)CC(=O)C1C(=O)OC` (stereo not given) the melting point was 54 °C.
For `CC1(C)Oc2cc(Br)c(Br)cc2O1`, the melting point was 93 to 94 °C.
Compound `CCOc1ccc(F)cc1C(=O)c1sc2ncc(C#N)cc2c1N` has a melting point of 196 °C.
For `COc1cc(OC)c2ncc(C(=O)NCc3ccc(Cl)cc3)c(O)c2c1`, the melting point was 270 to 271 °C.
`CCC1=C(O)C(=O)CO1` showed a melting point of 47 to 48 °C.
In the case of `CCC(O)c1nc(C)nc2c1c(C)c(C)n2-c1c(C)cc(C)cc1C` (stereo not given), the melting point is reported as 143 to 144 °C.
In the case of `COC(=O)c1cc(C)cc(OC)c1C1=CC(=O)c2c(O)cccc2C1=O`, the melting point is reported as 140 to 143 °C.
Compound `COc1cc2c(cc1Br)CC(C)N(C(=O)C1CC1)N=C2c1ccc([N+](=O)[O-])cc1` (stereo not given) has a melting point of 194 to 196 °C.
In the case of `O=C1Cc2cccc(S(=O)c3ccccc3Cl)c2N1` (stereo not given), the melting point is reported as 243 to 245 °C.
With `CCOC(=O)C1=C(C)NC(C)=C(C(=O)OC)C1c1cccc(NC(C)=O)c1` (stereo not given) the melting point was 197 to 199 °C.
With `Nc1cccc(-c2ccc(CCNCCCCCc3ccccc3)cc2)n1` the melting point was 60 to 70 °C.
In the case of `COc1ccc(N(C(=O)CN2C(=O)c3ccccc3C2=O)c2ccccc2)cc1`, the melting point is reported as 192 °C.
With `CCOC(=O)/C=C(/c1ccc(OC)cc1)c1cc(F)cc(F)c1` the melting point was 65 to 66 °C.
